Test results reported in patent US9604932B2 (priority 2013, dated 2017).

Experiments:
[1] = system: pulmonary hypertension of the newborn (PPHN); assay: Lamb model of pulmonary hypertension of the newborn; type: in vivo, newborn lambs; conditions: protocol only; 0.3, 1.0, 3.0 mg/kg/h IV
Description: In this study, a prospective, placebo-controlled, dose-escalation, randomized study is carried out in anesthetized, mechanically-ventilated, and muscle-relaxed newborn lambs wherein pulmonary hypertension of the newborn (PPHN) has been induced by in utero ligation of the ductus arteriosus. This clinically-relevant gold-standard model is characterized by severe PAH that is poorly responsive to inhaled nitric oxide (iNO), thus reflecting the 30-50% of clinical PPHN non-responders to clinical iNO therapy. R-107 (0, 0.3, 1.0, and 3.0 mg/kg/h IV; n=6 per group) is compared to iNO (40 ppm; n=6) over a 6 hour period of observation. Hemodynamic parameters are monitored for response to treatment and post-treatment rebound pulmonary arterial hypertension. The activity of R-107 is related to its plasma concentration, in order to construct a pharmacodynamic profile.

[2] = Plasma pharmacokinetics in sheep (release of R-100 from R-107), LCMS; type: in vivo
Description: In the following two experiments, the pharmacokinetic of releasing R-100 from R-107, via R-105 that is the reduced form of R-100, was studied in vivo according to the protocol described herein.
100 μl aliquots plasma obtained from R-107-treated sheep or pig were thawed and 200 μl ice-cold ethanol was added to each 100 μl sample to precipitate protein. Samples were then vortexed, placed on ice for 10 minutes, and then spun down at room temperature for 15 minutes. A first 100 μl supernatant from each spun sample was withdrawn and placed in a labeled HPLC micro vial to which 300 μl MPA (LC mobile phase A) was added, and the vial contents were then mixed and submitted for LCMS analysis (kept at 4° C.). The concentration of R-107 was measured in this sample as was the concentration of R105. A second 100 μl supernatant from each spun sample was added to a labelled HPLC micro vial to which 300 μl MPA and 2 μl of Reducing solution (ascorbic acid, 1.0 mg/ml in water) were added. These vials were vortexed; incubated at 50° C. for 1 hour with gentle shaking; and were then cooled to 4° C. and submitted for LCMS analysis. This sample was analyzed for R105, i.e., reduced form of R-100, and the amount measured thus represents the sum of R-100 and R-105 originally present in the plasma. The concentration of R-100 can be calculated from that of the R-105 in the second sample minus that of R-105 in the first sample. However, the concentrations of R-105 were seen to be low (approximately 10% or less of those of R-100) and so the results reported below as R-100 are not corrected for R-105.
Sets of standards (R-100, R-105 and R-107) were prepared by spiking individually in pig plasma. 100 μl aliquots of these spiked plasma samples, after thawing, were included in the above extraction protocol.
Analysis method were carried out with an Agilent HPLC stack, with column eluate directed, via a diverter valve, into the source of an AB Sciex ‘Qstar Elite’ Hybrid TOF, high-resolution mass spectrometer. LC column: Phenomenex Kinetex C18 2.6u 100A, 2.1×50 mm. LC mobile phase A: H2O with 0.02% trifluoroacetic acid (TFA), 0.1% formic acid (HOF); Phase B: acetonitrile (ACN) with 0.02% TFA, 0.1% HOF. Mobile phase flow rate=500 μl/min. Injection size: 8 μl, via Agilent 1100 u-WPS autosampler. […]

[3] = system: retinal ischemia-reperfusion injury; assay: Murine model of retinal ischemia-reperfusion injury; type: in vivo, C57BL/6 mice; conditions: protocol only; 30 mg/kg/day IP BID
Description: In this study, the efficacy of R-107 in subacute murine model of retinal ischemia-reperfusion injury is tested, using male C57BL/6 mice (n=10 per group). Briefly, the anterior chamber of the right eye is cannulated with a 30 gauge needle attached to a line infusing sterile saline. The intraocular pressure (IOP) is raised to 110 mmHg by elevating the saline reservoir. The left eye undergoes sham surgery, in which the needle is inserted into the anterior chamber without elevating IOP. R-107 is injected (30 mg/kg/day IP BID) commencing directly before reperfusion. 2 vehicle controls (normal saline and HPCD) is compared to drug therapy. Treatments are repeated twice daily thereafter until sacrifice. The outcome of these pharmacologic studies is quantitatively assessed by using terminal deoxynucleotidyl transferase dUTP nick end labeling (TUNEL) to measure retinal cell death (after 3 days), confocal imaging to quantify survival of ganglion cell layer neurons (after 7 days), and electroretinogram recordings to measure retinal neuronal function (after 21 days).

[4] = system: acute retinal ischemia-reperfusion injury; assay: Porcine model of acute retinal ischemia-reperfusion injury; type: in vivo; conditions: protocol only; 10, 30, 80 mg/kg/day IV BID
Description: In this study, a porcine model of acute retinal ischemia-reperfusion injury (n=6 per group) is induced by equilibration with an elevated saline reservoir to create a static IOP of 90 mmHg for 90 min. Task #1: Microvascular responsiveness: A dose-response of parenteral R-107 (0, 10, 30, 80 mg/kg/day IV BID) is initiated 10 minutes before reperfusion. 1 hour after reperfusion, retinal microvessels are harvested and cannulated for ex vivo analysis of vascular responsiveness to endothelium dependent and independent vasodilators. Task #2: Retinal function and morphology: R-107 is given 10 minutes before reperfusion (at a dose determined by Task #1) and its efficacy judged by electroretinogram (1, 2, 7 days post-reperfusion) and retinal histology, ultrastructure, and drug concentration (Day 7).

SMILES: CC(=O)ON1C(C)(C)CC(CO[N+](=O)[O-])C1(C)C (centres unmarked) [R-107, 2,2,5,5-tetramethyl-3-(nitrooxymethyl)pyrrolidin-1-yl acetate]
- Efficacy in lamb model of pulmonary hypertension of the newborn [1]: Effective
- R-100 in plasma ([2]; IM neat R-107 25 mg/kg, 48 hrs post dose): not detected
- R-107 in plasma ([2]; IV neat R-107 25 mg/kg over 10 minutes, 2 hrs post dose): not detected
- R-107 in plasma ([2]; IV neat R-107 25 mg/kg over 10 minutes, 4 hrs post dose): not detected
- R-107 in plasma ([2]; IV neat R-107 25 mg/kg over 10 minutes, 6 hrs post dose): not detected
- R-107 in plasma ([2]; IV neat R-107 25 mg/kg over 10 minutes, 8 hrs post dose): not detected
- R-107 in plasma ([2]; IV neat R-107 25 mg/kg over 10 minutes, 24 hrs post dose): not detected
- concentration at 0 h ([2]; plasma, IV neat R-107 25 mg/kg over 10 minutes, 0 hrs post dose): 0 ng/mL
- concentration at 0.1 h ([2]; plasma, IV neat R-107 25 mg/kg over 10 minutes, 0.1 hrs post dose): 5500 ng/mL
- concentration at 0.4 h ([2]; plasma, IV neat R-107 25 mg/kg over 10 minutes, 0.4 hrs post dose): 1210 ng/mL
- concentration at 0.5 h ([2]; plasma, IV neat R-107 25 mg/kg over 10 minutes, 0.5 hrs post dose): 200 ng/mL
- concentration at 1 h ([2]; plasma, IV neat R-107 25 mg/kg over 10 minutes, 1 hrs post dose): 0 ng/mL
- Efficacy in murine model of retinal ischemia-reperfusion injury [3]: Effective
- Efficacy in porcine model of acute retinal ischemia-reperfusion injury [4]: Effective
